Like-named read-outs stand apart in the source and are kept apart here.
Target: 11β-HSD1 (Homo sapiens (Human), UniProt P28845)
Assay: Biological Test Example 1: inhibition of a microsomal preparation of 11β-HSD1 (SPA)
Type: biochemical
Conditions: for inhibition at 0.111 µM: read-out: Average % inhibition at 111 nM
Experimental: All reactions were carried out at rt in 96 well clear flexible PET Microbeta plates (PerkinElmer). […] After a 10 minute pre-incubation, 50 μL of enzyme solution containing microsomes isolated from CHO cells overexpressing human 11-HSD1 (10-20 μg/ml of total protein) was added, and the plates were incubated for 90 minutes at rt. The reaction was stopped by adding 50 μl of the SPA beads suspension containing 10 μM […], 5 mg/ml protein A coated YSi SPA beads (GE Healthcare) and 3.3 μg/ml of anti-cortisol antibody (East Coast Biologics) in Superblock buffer (Bio-Rad). The plates were shaken for 120 minutes at rt, and the SPA signal corresponding to [^3H]cortisol was measured on a Microbeta plate reader.

[1] = Biological Test Example 1, microsomes from CHO cells overexpressing human 11β-HSD1, read-out: IC50 Range
[2] = Biological Test Example 1, read-out: IC50
[3] = read-out: Average % inhibition at 100 nM, Biological Test Example 1, 100 nM compound
[4] = Biological Test Example 1, 100 nM compound

Chain of 11β-HSD1 (P28845 whole entry): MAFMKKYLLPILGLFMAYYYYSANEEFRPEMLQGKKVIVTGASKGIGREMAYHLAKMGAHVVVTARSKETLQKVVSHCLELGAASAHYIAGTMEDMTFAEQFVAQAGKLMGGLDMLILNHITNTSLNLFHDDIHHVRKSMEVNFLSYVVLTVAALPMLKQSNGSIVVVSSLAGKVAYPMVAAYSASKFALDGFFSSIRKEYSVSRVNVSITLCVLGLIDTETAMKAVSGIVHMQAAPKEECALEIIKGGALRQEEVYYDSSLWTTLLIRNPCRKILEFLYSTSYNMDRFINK

SMILES	IC50 [1] [nM]	IC50 [2] [nM]	inhibition at 0.1 µM [3] [%]	Average % inhibition at 100 nM [4] [%]	other results
O=C(OC1C2CC3CC1CC(O)(C3)C2)N1CCC(c2ccncc2)C1 (stereo not shown) [EXAMPLE 21, 1-hydroxy-4-adamantyl 3-(pyridin-4-yl)pyrrolidine-1-carboxylate]	< 100	20.8	81.4		
Cn1c(C2CCCN2C(=O)OC2C3CC4CC2CC(C(N)=O)(C4)C3)nc2ccccc21 (stereo not shown) [EXAMPLE 32, (1-carbamoyl-4-adamantyl) 2-(1-methyl-1H-benzo[d]imidazol-2-yl)pyrrolidine-1-carboxylate]	< 100	1.08	94.7		
Cn1c(=O)n([C@H]2CCN(C(=O)O[C@H]3C4CC5CC3C[C@](C(N)=O)(C5)C4)C2)c2ccc(C#N)cc21 [EXAMPLE 70, (S)-trans-1-carbamoyl-4-adamantyl 3-(5-cyano-3-methyl-2-oxo-2,3-dihydro-1H-benzo[d]imidazol-1-yl)pyrrolidine-1-carboxylate]	< 100				inhibition at 0.1 µM (read-out: Average % inhibition at 100 nM): 91.3%
NC(=O)[C@]12CC3CC(C1)[C@@H](OC(=O)N1CCC(c4ncc(Cl)cn4)C1)C(C3)C2 (single isomer, unassigned) [EXAMPLE 26 Isomer 1a, (1-carbamoyl-4-adamantyl) 3-(5-chloropyrimidin-2-yl)pyrrolidine-1-carboxylate]	< 100	1.15		102.6	
O=C(O)c1ccc(C2CCCN(C(=O)OC3C4CC5CC(C4)CC3C5)C2)cc1 (stereo not shown) [EXAMPLE 18, 4-(1-(2-adamantyloxycarbonyl)piperidin-3-yl)benzoic acid]	< 100	27.8			inhibition at 0.111 µM (Biological Test Example 1, 111 nM compound): 82.2%
O=C(OC1C2CC3CC(C2)CC1C3)N1CCC(c2ncc(Cl)cn2)C1 (stereo not shown) [EXAMPLE 34, 2-adamantyl 3-(5-chloropyrimidin-2-yl)pyrrolidine-1-carboxylate]	< 100	0.52	96.8		
Cc1nc2cc(F)ccc2n1C1CCN(C(=O)OC2C3CC4CC2CC(C(N)=O)(C4)C3)C1 (single isomer, unassigned; isomer 1) [EXAMPLE 74 Isomer 1]					Average % inhibition at 100 nM: 91.9%; IC50 (read-out: IC50): 2.22 nM; IC50 (read-out: IC50 Range): < 100 nM
Cc1ccc(C2CCN(C(=O)OC3C4CC5CC3CC(C(N)=O)(C5)C4)C2)nc1 (single isomer, unassigned) [EXAMPLE 35 Isomer 1, trans-1-carbamoyl-4-adamantyl 3-(5-methylpyridin-2-yl)pyrrolidine-1-carboxylate]	< 100	1.61		91.6	
NC(=O)[C@]12CC3CC(C1)[C@@H](OC(=O)N1CCC(c4ncc(Cl)cn4)C1)C(C3)C2 (single isomer, unassigned) [EXAMPLE 26 Isomer 1b, (1-carbamoyl-4-adamantyl) 3-(5-chloropyrimidin-2-yl)pyrrolidine-1-carboxylate]	< 100	1.91		84.2	
NC(=O)[C@]12CC3CC(C1)[C@@H](OC(=O)N1CCC(c4ncc(Cl)cn4)C1)C(C3)C2 (single isomer, unassigned) [EXAMPLE 26 Isomer 2, cis-(1-carbamoyl-4-adamantyl) 3-(5-chloropyrimidin-2-yl)pyrrolidine-1-carboxylate]	> 100	> 100		26.3	
Cn1c(C2CCN(C(=O)O[C@H]3C4CC5CC3C[C@](C(N)=O)(C5)C4)C2)nc2ccccc21 (stereo partly drawn) [EXAMPLE 31, (trans-1-carbamoyl-4-adamantyl) 3-(1-methyl-1H-benzo[d]imidazol-2-yl)pyrrolidine-1-carboxylate]	< 100	91.7	44.1		
CCOC(=O)C1(Cc2ccccc2OC)CCCN(C(=O)OC2C3CC4CC(C3)CC2C4)C1 (stereo not shown) [EXAMPLE 14, 1-(2-adamantyl) 3-ethoxycarbonyl-3-(2-methoxybenzyl)piperidine-1-carboxylate]	< 100				inhibition at 0.111 µM: 87.6%; IC50 (read-out: IC50): 7.15 nM

The next lines start with results.

IC50 [1] [nM]	IC50 [2] [nM]	inhibition at 0.1 µM [3] [%]	Average % inhibition at 100 nM [4] [%]	SMILES	other results
< 100	7.11	84.9		COC(=O)Cn1c(=O)n([C@H]2CCN(C(=O)O[C@H]3C4CC5CC3C[C@](C(N)=O)(C5)C4)C2)c2ccc(F)cc21 [EXAMPLE 72, (S)-trans-1-carbamoyl-4-adamantyl 3-(5-fluoro-3-(2-methoxy-2-oxoethyl)-2-oxo-2,3-dihydro-1H-benzo[d]imidazol-1-yl)pyrrolidine-1-carboxylate]	
> 100	> 100		6.1	NC(=O)c1cnc(C2CCN(C(=O)OC3C4CC5CC3CC(C(N)=O)(C5)C4)C2)nc1 (single isomer, unassigned) [EXAMPLE 47 Isomer 1, 1-carbamoyl-4-adamantyl 3-(5-carbamoylpyrimidin-2-yl)pyrrolidine-1-carboxylate]	
< 100	0.47	95.8		Cn1ccc(-c2csc([C@H]3CCCN3C(=O)OC3C4CC5CC(C4)CC3C5)n2)cc1=O (stereo partly drawn) [EXAMPLE 53, (R)-2-adamantyl 2-(4-(1-methyl-2-oxo-1,2-dihydropyridin-4-yl)thiazol-2-yl)pyrrolidine-1-carboxylate]	
			76.6	Cc1ccc(C2CCN(C(=O)OC3C4CC5CC3CC(C(N)=O)(C5)C4)C2)nn1 (single isomer, unassigned) [EXAMPLE 37 Isomer 1, trans-1-carbamoyl-4-adamantyl 3-(6-methylpyridazin-3-yl)pyrrolidine-1-carboxylate]	
< 100	0.76	93.9		NC(=O)[C@]12CC3CC(C1)[C@@H](OC(=O)N1CC[C@H](n4c(=O)[nH]c5ccccc54)C1)C(C3)C2 [EXAMPLE 60, (S)-trans-1-carbamoyl-4-adamantyl 3-(2-oxo-2,3-dihydro-1H-benzo[d]imidazol-1-yl)pyrrolidine-1-carboxylate]	
< 100	83.7		59.1	Cc1ncc(C2CCN(C(=O)OC3C4CC5CC3CC(C(N)=O)(C5)C4)C2)cn1 (single isomer, unassigned) [EXAMPLE 36 Isomer 1, 1-carbamoyl-4-adamantyl 3-(2-methylpyrimidin-5-yl)pyrrolidine-1-carboxylate]	
< 100	0.7	96.8		O=C(OC1C2CC3CC(C2)CC1C3)N1CCC(c2nc(-c3ccncc3)cs2)C1 (stereo not shown) [EXAMPLE 51, 2-adamantyl 3-(4-(pyridin-4-yl)thiazol-2-yl)pyrrolidine-1-carboxylate]	
< 100	2.07	93.1		Cn1ccc(-c2csc([C@H]3CCCN3C(=O)O[C@H]3C4CC5CC3C[C@](C(N)=O)(C5)C4)n2)cc1=O [EXAMPLE 55, (R)-trans-1-carbamoyl-4-adamantyl 2-(4-(1-methyl-2-oxo-1,2-dihydropyridin-4-yl)thiazol-2-yl)pyrrolidine-1-carboxylate]	
< 100	91.6		55.6	NC(=O)c1cnc(C2CCN(C(=O)OC3C4CC5CC3CC(C(N)=O)(C5)C4)C2)nc1 (single isomer, unassigned) [EXAMPLE 47 Isomer 2, 1-carbamoyl-4-adamantyl 3-(5-carbamoylpyrimidin-2-yl)pyrrolidine-1-carboxylate]	
< 100	33.1	69		N#Cc1ccc2[nH]c(=O)n([C@@H]3CCN(C(=O)O[C@H]4C5CC6CC4C[C@](C(N)=O)(C6)C5)C3)c2c1 [EXAMPLE 65, (R)-trans-1-carbamoyl-4-adamantyl 3-(6-cyano-2-oxo-2,3-dihydro-1H-benzo[d]imidazol-1-yl)pyrrolidine-1-carboxylate]	
			2.4	COc1cnc(C2CCN(C(=O)OC3C4CC5CC3CC(C(N)=O)(C5)C4)C2)nc1 (single isomer, unassigned) [EXAMPLE 44 Isomer 2, 1-carbamoyl-4-adamantyl 3-(5-methoxypyrimidin-2-yl)pyrrolidine-1-carboxylate]	
< 100	0.67	96.6		Cn1c(=O)n([C@H]2CCN(C(=O)O[C@H]3C4CC5CC3C[C@](C(N)=O)(C5)C4)C2)c2c(Cl)cccc21 [EXAMPLE 71, (S)-trans-1-carbamoyl-4-adamantyl 3-(7-chloro-3-methyl-2-oxo-2,3-dihydro-1H-benzo[d]imidazol-1-yl)pyrrolidine-1-carboxylate]	
< 100	4.17	89.9		NC(=O)[C@]12CC3CC(C1)[C@@H](OC(=O)N1CC[C@@H](n4c(=O)[nH]c5ccccc54)C1)C(C3)C2 [EXAMPLE 61, (R)-trans-1-carbamoyl-4-adamantyl 3-(2-oxo-2,3-dihydro-1H-benzo[d]imidazol-1-yl)pyrrolidine-1-carboxylate]	
> 100	> 100		10.7	Cc1ccnc(C2CCN(C(=O)OC3C4CC5CC3CC(C(N)=O)(C5)C4)C2)n1 (single isomer, unassigned) [EXAMPLE 38 Isomer 2, 1-carbamoyl-4-adamantyl 3-(4-methylpyrimidin-2-yl)pyrrolidine-1-carboxylate]	
< 100	2.07	91.6		CC(C)(O)CC1(c2ccccc2)CCN(C(=O)O[C@H]2C3CC4CC2C[C@](C(N)=O)(C4)C3)C1 (stereo partly drawn) [EXAMPLE 49, trans-1-carbamoyl-4-adamantyl 3-(2-hydroxy-2-methylpropyl)-3-phenylpyrrolidine-1-carboxylate]	

From US9163012B2, “Carbamate and urea inhibitors of 11β-hydroxysteroid dehydrogenase 1” (Vitae Pharmaceuticals, Inc., priority 2009, dated 2015)
